Assay results taken from PMC9297976 (Journal of Applied Toxicology, 2021).

Assays:
medaka Esr1 (mEsr1) [1] = target: T1, medaka Esr1 (mEsr1) (Oryzias latipes, UniProt P50241); test: cell-based; parameters: species or system Japanese medaka (Oryzias latipes)
T1 sequence (P50241 1-620): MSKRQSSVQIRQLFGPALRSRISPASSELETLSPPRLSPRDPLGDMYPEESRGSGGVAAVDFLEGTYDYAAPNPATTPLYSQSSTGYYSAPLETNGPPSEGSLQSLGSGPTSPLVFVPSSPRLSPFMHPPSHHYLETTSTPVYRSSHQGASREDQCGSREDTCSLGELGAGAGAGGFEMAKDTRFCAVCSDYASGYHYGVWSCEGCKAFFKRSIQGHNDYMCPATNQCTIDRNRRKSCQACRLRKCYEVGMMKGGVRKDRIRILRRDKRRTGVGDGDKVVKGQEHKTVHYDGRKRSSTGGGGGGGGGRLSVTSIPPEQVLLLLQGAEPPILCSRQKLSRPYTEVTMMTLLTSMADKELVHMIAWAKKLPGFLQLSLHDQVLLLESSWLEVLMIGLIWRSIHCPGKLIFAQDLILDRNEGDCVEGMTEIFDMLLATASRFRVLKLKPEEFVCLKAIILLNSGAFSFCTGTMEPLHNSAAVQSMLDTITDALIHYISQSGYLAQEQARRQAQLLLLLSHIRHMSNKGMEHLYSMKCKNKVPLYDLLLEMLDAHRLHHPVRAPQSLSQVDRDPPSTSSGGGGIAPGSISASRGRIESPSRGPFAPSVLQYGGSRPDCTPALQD

medaka Esr1 (mEsr1) [2] = target: T1, medaka Esr1 (mEsr1); test: Medaka Esr1 reporter gene assay, antagonist assay; format: cell-based, Japanese medaka (Oryzias latipes); conditions: E2 spiked at 0.2 nM (A); MAC = 1.0 × 10^−5 M
medaka ARβ (mArβ) [3] = target: T2, medaka ARβ (mArβ) (Oryzias latipes, UniProt D1MV73); test: Medaka ARβ reporter gene assay, agonist assay; format: cell-based, Japanese medaka (Oryzias latipes); conditions: MAC = 1.0 × 10^−5 M
T2 sequence (D1MV73 1-744): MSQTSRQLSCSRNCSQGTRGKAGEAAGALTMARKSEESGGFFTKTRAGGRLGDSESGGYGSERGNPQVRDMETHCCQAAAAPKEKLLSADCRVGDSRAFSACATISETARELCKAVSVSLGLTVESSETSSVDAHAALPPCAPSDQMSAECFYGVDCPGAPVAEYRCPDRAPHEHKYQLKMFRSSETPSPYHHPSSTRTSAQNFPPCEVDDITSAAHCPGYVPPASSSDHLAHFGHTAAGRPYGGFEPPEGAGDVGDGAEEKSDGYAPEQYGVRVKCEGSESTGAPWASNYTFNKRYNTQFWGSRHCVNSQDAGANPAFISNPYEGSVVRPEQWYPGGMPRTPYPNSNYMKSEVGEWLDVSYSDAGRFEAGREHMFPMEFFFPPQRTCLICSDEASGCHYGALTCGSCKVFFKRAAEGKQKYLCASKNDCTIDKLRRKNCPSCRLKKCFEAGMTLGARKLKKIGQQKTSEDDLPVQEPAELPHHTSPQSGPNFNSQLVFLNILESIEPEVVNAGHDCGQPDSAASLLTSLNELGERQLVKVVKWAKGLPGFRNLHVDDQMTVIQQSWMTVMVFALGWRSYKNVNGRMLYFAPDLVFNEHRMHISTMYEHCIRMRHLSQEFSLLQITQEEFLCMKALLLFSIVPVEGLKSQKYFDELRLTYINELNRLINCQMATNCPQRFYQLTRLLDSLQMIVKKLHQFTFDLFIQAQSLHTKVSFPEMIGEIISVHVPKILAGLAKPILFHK

medaka ARβ (mArβ) [4] = target: T2, medaka ARβ (mArβ); test: Medaka ARβ reporter gene assay, antagonist assay; format: cell-based, Japanese medaka (Oryzias latipes); conditions: 11‐KT spiked at 50 nM (D); MAC = 1.0 × 10^−5 M
[5] = test system: Japanese medaka (Oryzias latipes); test: Fish Short‐Term Reproduction Assay; format: in vivo; conditions: for GSI Female / GSI Male / HSI Female / HSI Male / Length Female / Length Male / Weight Female / Weight Male: completion of exposure
[6] = 2.94 mg/L measured, 21 d, sig. ↑ vs control
[7] = 2.94 mg/L measured, 21 d, sig. ↓ vs control
[8] = measured concentration 0.311 mg/L
[9] = measured concentration 0.926 mg/L
[10] = measured concentration 2.94 mg/L

## CCCOC(=O)c1ccc(O)cc1 [PPB, 4‐Hydroxybenzoate propyl]
Medaka Esr1 (mEsr1) [1]
  EC50: 7 µM
Medaka Esr1 (mEsr1) [1]; mode of action in which EC50 or PC10 was obtained in RGA
  In vitro positive: Esr: Esr
Medaka Esr1 (mEsr1) [2]
  Antagonistic activity: NE (MAC = 1.0 × 10^−5 M)^(A)
Medaka ARβ (mArβ) [3]
  Agonistic activity: NE (MAC = 1.0 × 10^−5 M)
Medaka ARβ (mArβ) [4]
  Antagonistic activity: NE (MAC = 1.0 × 10^−5 M)^(D)
[5]; 0.311 mg/L measured, 21 d
  Fertility rate: 93 ± 3.1%
  Hepatic VTG, female: 1,190 ± 238 ng/mg‐liver
  Mortality: 0.0%
  Mortality, number of dead fish: 0
  Number of fertilized eggs (per female per day): 26 ± 0.8
  Number of total eggs (per female per day): 28 ± 1.6
  SSC female (joint plates with papillary processes): 0 ± 0
[5]; 0.311 mg/L measured, 21 d, sig. ↑ vs control
  Hepatic VTG, male: 23.7 ± 9.0 ng/mg‐liver
[5]; 0.926 mg/L measured, 21 d
  Fertility rate: 94 ± 3.7%
  Hepatic VTG, female: 1,590 ± 271 ng/mg‐liver
  Mortality: 0.0%
  Mortality, number of dead fish: 0
  Number of total eggs (per female per day): 23 ± 2.0
  SSC female (joint plates with papillary processes): 0 ± 0
[5]; 0.926 mg/L measured, 21 d, sig. ↑ vs control
  Hepatic VTG, male: 42.2 ± 36.8 ng/mg‐liver
[5]; 0.926 mg/L measured, 21 d, sig. ↓ vs control
  Number of fertilized eggs (per female per day): 22 ± 1.6
[5]; 2.94 mg/L measured, 21 d
  Mortality: 0.0%
  Mortality, number of dead fish: 0
  SSC female (joint plates with papillary processes): 0 ± 0
[5]; [6]
  Hepatic VTG, female: 3,540 ± 1,080 ng/mg‐liver
  Hepatic VTG, male: 4,170 ± 513 ng/mg‐liver
[5]; [7]
  Fertility rate: 41 ± 23%
  Number of total eggs (per female per day): 10 ± 4.7
[5]; 21 d
  Change of hepatic VTG levels in females (in words): significant increase
  Fecundity, number of total eggs (in words): statistically significant decrease
  LOEC, elevated hepatic VTG in males: 0.311 mg/L
[5]; LOEC on reproduction (fecundity and/or fertility)
  LOECREPRO: 926 µg/L
[5]; Oryzias latipes, 504 h, read-out: LOECmVTG
  minimal effective concentration: 0.311 µg/mL
[5]; concentrations without overt toxicity
  LOECREPRO (reduction in fecundity or fertility): 926 µg/L
[5]; lowest observed effect concentration on mortality
  LOECTOX: ND (>2,940) μg/L
[5]; [8]
  GSI Female: 10.0 ± 0.2%
  GSI Male: 0.74 ± 0.14%
  HSI Female: 5.4 ± 0.75%
  HSI Male: 2.7 ± 0.98%
  Length Female: 36.1 ± 0.2 mm
  Length Male: 36.4 ± 1.3 mm
  Weight Female: 525 ± 27 mg
  Weight Male: 525 ± 13 mg
[5]; [9]
  GSI Female: 9.9 ± 1.1%
  GSI Male: 0.78 ± 0.05%
  HSI Female: 5.1 ± 0.20%
  HSI Male: 2.7 ± 0.23%
  Length Female: 36.8 ± 0.8 mm
  Length Male: 37.1 ± 1.7 mm
  Weight Female: 539 ± 21 mg
  Weight Male: 515 ± 49 mg
[5]; [10]
  GSI Female: 10.0 ± 1.1%
  GSI Male: 0.81 ± 0.21%
  HSI Female: 4.3 ± 0.77%
  HSI Male: 2.3 ± 0.14%
  Length Female: 36.5 ± 1.5 mm
  Length Male: 36.5 ± 0.9 mm
  Weight Female: 549 ± 83 mg
  Weight Male: 490 ± 26 mg
